Measured values reported in publication PMC12577588 (2025).

System: telo24 DNA (DNA, G4) TTAGGGTTAGGGTTAGGGTTAGGG
Assay: UV-vis titration
Conditions: K+ 100 mM; 10 mM HEPES pH 7.4, 1 mM Na2EDTA; 5 μM porphyrin; error is SE

**Q.** `C[n+]1ccc(-c2c3nc(c(-c4cc[n+](C)cc4)c4ccc([nH]4)c(-c4cc[n+](C)cc4)c4nc(c(-c5cc[n+](C)cc5)c5ccc2[nH]5)C=C4)C=C3)cc1` was tested. Which Kd did it give?
**A.** The Kd was 0.93 (0.18) μM.
